The record followed here is ChEMBL document CHEMBL3507680, “University of Dundee, Gates Library screen for HepG2 cell viability”.

This data set is described as follows: Human HepG2 cell viability assay in 384 well format. It is filed as toxicity, cell-based. Also on record: dose 125 nL, time 70.5 hour; cytotoxicity at 70.5 h: concentration not given beside the values. Conditions: HepG2 cells, read-out: Inhibition.

Consider `O=C(NCCn1cccn1)C1CCC(=O)N(CC2CCCCC2)C1` (configuration not stated), for which the cytotoxicity at 70.5 h is 18%.

For `COC[C@@]12CC[C@@H](N3CCOCC3)C[C@H]1CCN(c1cnccn1)C2`, the cytotoxicity at 70.5 h came to 13.9%.

On to `Cc1ccc(-c2cn(C3CCN(C(=O)[C@H]4CCCO4)CC3)nn2)cc1`, for which the cytotoxicity at 70.5 h is -5.5%.

In the case of `COCCCN1CCN(c2ncnc3nc(C)cc(C)c23)CC1`, the cytotoxicity at 70.5 h was -4.17%.

Regarding `CCNc1ncc(CN(CCN(C)C)Cc2ccc(C)s2)cn1`, the cytotoxicity at 70.5 h was -7.34%.

As for `CCCN1CCC(N2CCC(Cn3cc(CC(C)O)nn3)CC2)CC1` (configuration not stated), the cytotoxicity at 70.5 h is -6.23%.

Consider `CC(C)(O)CCc1ccc(C(=O)N2Cc3cnn(CCO)c3C2)cc1`, for which the cytotoxicity at 70.5 h was -11.3%.

Regarding `CCCc1ncc(CN(C)C2CCCN(CCc3ccccc3)C2)cn1` (configuration not stated), the cytotoxicity at 70.5 h is -4.41%.

Turning to `CN(C)[C@@H]1C[C@@H](CO)N(C(=O)Nc2cccc(F)c2F)C1`, the cytotoxicity at 70.5 h stood at 19.1%.

Consider `Cc1nc2c(c(NCC(O)c3ccccc3Cl)n1)CCNCC2` (configuration not stated), for which the cytotoxicity at 70.5 h was -11.8%.

Take `Oc1cccc2ccc(CN3CCC4(CCNCC4)C3)nc12`: the cytotoxicity at 70.5 h was -4.99%.

On to `C=C(C)COc1cccc(C(=O)N(CC)Cc2nccn2C)c1`, for which the cytotoxicity at 70.5 h was 2.21%.

With `CN(C)CCn1ccnc1C1CCCN(C(=O)CCc2cccnc2)C1` (configuration not stated), the cytotoxicity at 70.5 h is -4.26%.

Consider `Cc1cccnc1NCCNC(=O)c1cnc(-c2cccs2)nc1O`, for which the cytotoxicity at 70.5 h is -0.575%.

Turning to `COc1cccc(N2CCN(Cc3cc(C)cc(F)c3)CC2=O)c1`, the cytotoxicity at 70.5 h is -3.94%.

On to `CC[C@H](CO)NC(=O)c1coc(COc2cccc(F)c2F)n1`, for which the cytotoxicity at 70.5 h worked out at 9.55%.

`O=C1CC(NCc2cnc(C3CCCCC3)nc2)CN1c1ccccc1` (configuration not stated): the cytotoxicity at 70.5 h stood at 13.8%.

As to `Cn1cc(CN2CCCC(CCc3ccccc3C(F)(F)F)C2)cn1` (configuration not stated), the cytotoxicity at 70.5 h is -1.24%.

In the case of `Cc1ncnc(NC(CC(C)(C)C)c2cccnc2)c1C` (configuration not stated), the cytotoxicity at 70.5 h was -2.93%.

For the molecule `COc1ccc(CN(C)C2CCN(C(=O)C(C)C)CC2)c2cccnc12`, the cytotoxicity at 70.5 h is -10.3%.

On to `COC(=O)c1ccc2ccn(CC3CCCN(C)C3)c(=O)c2c1` (configuration not stated), for which the cytotoxicity at 70.5 h amounted to 25.4%.

For the molecule `CC(C)c1cc(NCC2(CO)CCC2)ncn1`, the cytotoxicity at 70.5 h is 17.4%.

As to `CCOCCn1nc(C)cc1C(=O)N(C)Cc1cccc2ncccc12`, the cytotoxicity at 70.5 h came out at 20.2%.

Take `Cc1nsc(NC(=O)NC2CCOCC2)n1`: the cytotoxicity at 70.5 h was found to be 13.1%.

For the molecule `CCN1CCN(C(=O)c2cc(-c3cccn3C)n[nH]2)[C@H]2CS(=O)(=O)C[C@H]21`, the cytotoxicity at 70.5 h is -18.3%.

In the case of `Cc1ccc(-c2cnnc(NCC3CCOCC3)n2)o1`, the cytotoxicity at 70.5 h was determined as 28.5%.

Turning to `Cc1nn(C)c2nc(N(Cc3nccs3)C3CC3)sc12`, the cytotoxicity at 70.5 h is -15.9%.

On to `Cn1c(C(N)=O)cc2c1CN(C(=O)C1CCCN(C3CCCC3)C1)CC2` (configuration not stated), for which the cytotoxicity at 70.5 h is -7.9%.

With `CN(Cc1nncn1C)C(=O)c1cc(COc2ccccc2)[nH]n1`, the cytotoxicity at 70.5 h is -5.51%.

For `CCC(=O)N1CCN(Cc2cnc(C)nc2)[C@H]2CS(=O)(=O)C[C@H]21`, the cytotoxicity at 70.5 h worked out at 12.9%.

Take `CCCc1cncnc1N1CCC(NCCc2ccc(O)cc2)CC1`: the cytotoxicity at 70.5 h was -6.17%.

With `Cc1cc(C(=O)N[C@H]2CN(CCO)C[C@@H]2C2CC2)sc1C`, the cytotoxicity at 70.5 h was -3.28%.

`CN1CCCC(CCC(=O)N2CCc3c(nc(CC4CC4)[nH]c3=O)C2)C1` (configuration not stated): the cytotoxicity at 70.5 h is -4.3%.

For the molecule `Nc1cc(-c2ccc(C(=O)O)cc2O)c2cc[nH]c2n1`, the cytotoxicity at 70.5 h was found to be 4.2%.

With `CCC(=O)Nc1cc(Cl)ccc1C(=O)N(C)Cc1noc(CC)n1`, the cytotoxicity at 70.5 h was -5.2%.

Consider `Cc1cnccc1CNCc1ccc(OC23CCCN(CC2)C3)cc1` (configuration not stated), for which the cytotoxicity at 70.5 h was -6.06%.

Regarding `CN1CCCCC1CCC(=O)NCCCn1nccc1C1CC1` (configuration not stated), the cytotoxicity at 70.5 h is -11.4%.

With `CC(C)n1cc(C(=O)NCCc2cn3ccsc3n2)cn1`, the cytotoxicity at 70.5 h is 13.8%.

For `CNC(=O)[C@@H]1C[C@@H](N)CN1C1CCN(Cc2ccccn2)CC1`, the cytotoxicity at 70.5 h is 20.3%.

Turning to `CCn1cc(CN2CCN(Cc3cccc(OC)c3)C(=O)C2)cc1C#N`, the cytotoxicity at 70.5 h is -1.17%.

`Cc1cc(CN2C[C@H]3CC[C@@H]2CN(Cc2[nH]cnc2C)C3)on1`: the cytotoxicity at 70.5 h was -6.39%.

With `Cc1noc(C)c1-c1n[nH]c2c1CN(S(=O)(=O)c1cccnc1)CC2`, the cytotoxicity at 70.5 h is -6.84%.

For the molecule `OC1CCN([C@@H]2CCN(c3nc(-c4ccccc4)no3)C[C@H]2O)CC1`, the cytotoxicity at 70.5 h is -1.33%.

For the molecule `CNc1cc(C)nc(N2C[C@H](NC(=O)C3CCOCC3)[C@@H](C3CC3)C2)n1`, the cytotoxicity at 70.5 h turned out to be 1.67%.

For the molecule `Cc1cccc(CN2C[C@@H](CN3CCCN(C)CC3)[C@@H](CO)C2)n1`, the cytotoxicity at 70.5 h is 26.4%.

Take `Cc1ccsc1-c1cccc(-c2ccn(CC3CCNC3)n2)c1` (configuration not stated): the cytotoxicity at 70.5 h came to 21.5%.

With `Cc1cccnc1CNCC1(O)CCCN(CC(C)(C)C)C1=O` (configuration not stated), the cytotoxicity at 70.5 h was -4.51%.

Regarding `COc1ccc(OC)c(-n2cnnc2CCN)c1`, the cytotoxicity at 70.5 h is -4.57%.

Regarding `CNC(=O)[C@@H]1C[C@H](N)CN1S(=O)(=O)c1cc(Cl)c(Cl)s1`, the cytotoxicity at 70.5 h is -2.73%.

As to `COc1ccc(CN(C)C(=O)c2nnc(CN(C)C)o2)cc1`, the cytotoxicity at 70.5 h is -3.32%.

For the molecule `Cc1nn(C)cc1CN1C[C@@H]2CC[C@H](C1)N(Cc1c(C)noc1C)C2=O`, the cytotoxicity at 70.5 h turned out to be 32.1%.

For the molecule `Cc1noc(C)c1CCN1CCCC1c1nc2cc(F)ccc2[nH]1` (configuration not stated), the cytotoxicity at 70.5 h was -5.52%.

For the molecule `Cc1ccccc1-n1cc(CN(C)C[C@@H]2CCCN3CCCC[C@H]23)cn1`, the cytotoxicity at 70.5 h was -12.2%.

On to `CCn1cc(C(=O)NCc2cccnc2N(C)Cc2ccccc2)cn1`, for which the cytotoxicity at 70.5 h amounted to 2.58%.

Consider `COCCC(=O)N1CCCC(CCC(=O)NCc2cccc(OC)c2)C1` (configuration not stated), for which the cytotoxicity at 70.5 h stood at 20.8%.

Take `CN(Cc1cc(-c2cccnc2)no1)C(=O)c1cccn1C`: the cytotoxicity at 70.5 h was 0.783%.

In the case of `CC(C(=O)O)N1CC2(CCC1=O)CCN(C/C=C/c1ccccc1)CC2` (configuration not stated), the cytotoxicity at 70.5 h was -7.03%.

With `COCc1ncc(-c2nccn2CCN(C)C)cn1`, the cytotoxicity at 70.5 h is -2.63%.

Take `O=S(=O)(N1CCOCC1)N1CCOC(CCCc2ccccc2)C1` (configuration not stated): the cytotoxicity at 70.5 h was -11.2%.

For `COc1cc(C2CC(=O)Nc3c2nc2n3CCCC2)cc2c1OCO2` (configuration not stated), the cytotoxicity at 70.5 h is -12%.

On to `O=C(NCC1CCCO1)c1ccc(S(=O)(=O)NCCc2cn[nH]c2)cc1` (configuration not stated), for which the cytotoxicity at 70.5 h was -4.87%.

As for `Cc1nn(C)cc1C(=O)N1CCCC(c2nccn2CC2CCC2)C1` (configuration not stated), the cytotoxicity at 70.5 h is -28.4%.

`O=C1NCC2(CCN(C(=O)c3ccc4c(c3)CCCO4)CC2)O1`: the cytotoxicity at 70.5 h was -1.35%.

As to `CC(C)Oc1cc(N2C[C@H](C3CC3)[C@@H](N)C2)nc(N)n1`, the cytotoxicity at 70.5 h is -25.3%.

On to `c1cc(CN2CCC(c3ccncc3)CC2)cc(Cn2cccn2)c1`, for which the cytotoxicity at 70.5 h was -1.99%.

On to `CC(CN1CCC2(CC1)N=C(N(C)C)NC2=O)c1ccccc1` (configuration not stated), for which the cytotoxicity at 70.5 h was -12.1%.

Consider `Cc1ccc(C)c2c(O)cc(CN3CCC(c4nncn4C)CC3)nc12`, for which the cytotoxicity at 70.5 h was found to be 0.0856%.

For the molecule `O=C(c1cc(COc2ccc3c(c2)OCO3)[nH]n1)N1CCCC(O)C1` (configuration not stated), the cytotoxicity at 70.5 h amounted to 0.249%.

With `Cc1ncsc1CCN(C)C(=O)CN1CCOc2ccccc2C1`, the cytotoxicity at 70.5 h is 0.856%.

As for `Cc1ccc(C(C(=O)N2CCN(C(=O)c3ccc[nH]3)CC2)N(C)C)cc1` (configuration not stated), the cytotoxicity at 70.5 h was -3.84%.

With `Cc1nccn1C1(C(=O)O)CCN(Cc2ccc3occc3c2)CC1`, the cytotoxicity at 70.5 h was -7.56%.

As for `CCc1csc(CNCC(=O)Nc2ccc(Cl)c(C)c2)n1`, the cytotoxicity at 70.5 h was -6.59%.

Turning to `C=C(C)COc1cccc(CNC(CC)c2ccnn2C)c1` (configuration not stated), the cytotoxicity at 70.5 h was found to be 1.1%.

Consider `CCC[C@H]1CN(Cc2ccc(N(C)C)nc2)C[C@@H]1NC(=O)CCOC`, for which the cytotoxicity at 70.5 h was -10.3%.

Turning to `Cn1c(N2CCOCC2)nc2cc(C(=O)NCC(F)(F)F)ccc21`, the cytotoxicity at 70.5 h was -9.13%.

On to `CCc1ccccc1OC1CN(C(=O)c2sccc2N)C1`, for which the cytotoxicity at 70.5 h was -3.46%.

Turning to `O=C(O)c1cc(-c2ccncc2F)cc(S(=O)(=O)N2CCCCCC2)c1`, the cytotoxicity at 70.5 h was -23.6%.

For `CC(C)Oc1cccc(F)c1C(C(=O)O)N1CCCN(C)CC1` (configuration not stated), the cytotoxicity at 70.5 h is 26.8%.

For `COCC1CCCCN1Cc1nc(-c2ccoc2)oc1C` (configuration not stated), the cytotoxicity at 70.5 h is -1.54%.

Turning to `CN(C)Cc1cc(-c2nccn2CCc2cccnc2)ccc1O`, the cytotoxicity at 70.5 h was -5.02%.

On to `Cc1ccccc1C(=O)NC[C@@H]1CCN(C(=O)C2(O)CCCC2)C[C@H]1O`, for which the cytotoxicity at 70.5 h was -4.64%.

Consider `CN(Cc1cc2cc(F)ccc2[nH]1)c1cc(C2CCCNC2)ncn1` (configuration not stated), for which the cytotoxicity at 70.5 h was -0.169%.

For the molecule `Cc1ncsc1C(=O)N1CCCC(c2nccn2Cc2cscn2)C1` (configuration not stated), the cytotoxicity at 70.5 h is -5.99%.

Take `CC1CCCCN1CCN(C)C(=O)c1cc(CN2CCC(O)CC2)on1` (configuration not stated): the cytotoxicity at 70.5 h is -0.898%.

Consider `Cc1cccc(C(C(=O)NCCn2cccc2)N(C)C)c1` (configuration not stated), for which the cytotoxicity at 70.5 h was -12.1%.

Take `CSc1ccccc1C(=O)C1CCCN(Cc2cc(C(C)C)[nH]n2)C1` (configuration not stated): the cytotoxicity at 70.5 h was -6.68%.

Consider `OC[C@H]1CCN(Cc2ccc3ccccc3n2)C[C@@H]1O`, for which the cytotoxicity at 70.5 h is -4.84%.

Take `CNS(=O)(=O)c1ccc(CN2CCN(Cc3ncccc3C)CC2)cc1`: the cytotoxicity at 70.5 h was -15.3%.

For `O=C(CCc1nc(Cl)n[nH]1)N1CCC2(CCCNC2=O)C1` (configuration not stated), the cytotoxicity at 70.5 h turned out to be 4.11%.

Turning to `Cc1cc(CN2CCCC2)cc(Oc2nc(C)cnc2C)c1`, the cytotoxicity at 70.5 h was -5.62%.

With `CN1CCC2(CCN(S(=O)(=O)c3ccc(-c4cnco4)s3)CC2)C1`, the cytotoxicity at 70.5 h was -8.53%.

Regarding `COc1cc2[nH]c(=O)c(CN3CCCC(CO)C3)cc2c(OC)c1OC` (configuration not stated), the cytotoxicity at 70.5 h is -13.1%.

As for `CCc1cnc(N)nc1N1CCCC2(CCOCC2)C1`, the cytotoxicity at 70.5 h is -3.13%.

Take `Cc1nonc1N1CCN(Cc2nc(CC3CC3)no2)CC1`: the cytotoxicity at 70.5 h is -2.56%.

Consider `CCOc1ccc2[nH]c(=O)c(CN3CCC(n4cnnc4)CC3)cc2c1`, for which the cytotoxicity at 70.5 h was -4.91%.

Take `CC(C)c1cc(C2CCCN2Cc2nc(-c3ccco3)no2)no1` (configuration not stated): the cytotoxicity at 70.5 h is -2.57%.

As for `CCc1c(C)sc2ncnc(N3CC[C@@H](N4CCC(O)CC4)[C@H](O)C3)c12`, the cytotoxicity at 70.5 h is -10.6%.
